Experimental data published in patent US20220008563A1, “RADIOLABELLED AND NONRADIOLABELLED PEGYLATED COMPOUNDS AND USES THEREOF” (The Regents of the University of California, priority 2020, published 2022).

Experiments:
MAO-A = target: T1, MAO-A (Homo sapiens, UniProt P21397); experiment: Effect of drugs on the binding of [^18F]FAZIN3 in postmortem human brain sections; conditions: for selectivity of binding for MAO-A versus MAO-B: by use of clorgyline (MAO-A inhibitor) and deprenyl (MAO-B inhibitor)
T1 construct: tissue Banner Sun Health Research Institute; host or cells: postmortem human anterior cingulate / corpus callosum sections (CN, AD, PD subjects)
T1 sequence (P21397 1-527): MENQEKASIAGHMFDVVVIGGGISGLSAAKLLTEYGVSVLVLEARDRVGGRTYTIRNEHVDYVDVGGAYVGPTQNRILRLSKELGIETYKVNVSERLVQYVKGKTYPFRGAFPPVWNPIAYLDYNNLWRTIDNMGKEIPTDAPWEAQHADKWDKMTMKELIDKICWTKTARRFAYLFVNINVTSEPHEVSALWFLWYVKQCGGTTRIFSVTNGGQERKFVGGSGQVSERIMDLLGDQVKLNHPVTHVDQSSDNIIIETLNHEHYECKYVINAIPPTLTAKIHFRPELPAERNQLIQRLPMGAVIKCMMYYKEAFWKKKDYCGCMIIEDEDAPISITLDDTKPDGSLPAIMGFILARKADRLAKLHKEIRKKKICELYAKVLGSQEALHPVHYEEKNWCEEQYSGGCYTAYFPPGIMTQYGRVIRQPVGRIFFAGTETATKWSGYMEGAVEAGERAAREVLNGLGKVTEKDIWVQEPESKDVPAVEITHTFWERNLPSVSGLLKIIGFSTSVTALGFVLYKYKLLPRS
Protocol: MK-6240 (10 μM) was used since it is known to bind to Tau. […] The slides containing the sections (10 μm thick) were preincubated in PBS buffer for 15 minutes in eight different slide chambers (one total binding and seven with the different drugs). The preincubation PBS buffer was discarded and appropriate amount of each drug (dissolved in ethanol) was added to the chambers with the slides. […] The chambers were incubated at 25° C. for 1.25 h. The slides were then washed with cold PBS buffer twice, and cold water, respectively. The slides with the brain sections were air dried, exposed overnight on a phosphor film, and then placed on the Phosphor Autoradiographic Imaging System/Cyclone Storage Phosphor System (Packard Instruments Co).

Aβ plaques [1] = experiment: Postmortem human brain autoradiography of [^18F]Flotaza in AD subjects; type: binding
Excerpt: Postmortem human brain autoradiography [^18F]Flotaza in AD subjects. Well characterized brain samples were obtained from Banner Health Research Institute. Brain slices from six AD subjects included anterior cingulate (gray matter, GM) and corpus callosum (white matter, WM) as shown for one subject in FIG. 24A. The AD brain sections of the six AD subjects were further confirmed to contain Aβ plaques in the GM regions by immunostaining with anti-Aβ Biolegend (known to stain Aβ1-16) as shown in FIG. 24B.
It must be noted that in these experiments, after [^18F]Flotaza binding, the slices were washed with 50% alcohol in PBS buffer.

Aβ plaques [2] = experiment: ^125I-IAZA brain autoradiography in postmortem human AD brain; type: binding; conditions: anterior cingulate
Excerpt: FIG. 22A-F provides the results of brain autoradiography in postmortem human brain from an Alzheimer patient using ^125I-IAZA and ^124I-IAZA. (A) AD brain slice showing gray matter (GM), anterior cingulate and white matter (WM) corpus callosum. […] (D) AD brain cortex slice showing gray matter on the left edges. (E)-(F) ^125I-IAZA binding in the outer regions containing gray matter which is consistent with Tau buildup.

Tau protein [3] = experiment: [^125I]IPPI / [^124I]IPPI autoradiography of postmortem AD brain slices; type: binding, human
Protocol: FIG. 18A-H: provides the results of [^125I]IPPI competitive binding assay with various inhibitors. (A) Postmortem human brain 10 μm thick sections (from two AD subjects, 11-107 and 11-38) of anterior cingulate (AC) grey matter (arrows showing GM) and corpus callosum (CC) white matter (WM). (B) [^125I]IPPI binding to grey matter, AC with low nonspecific binding in white matter, CC. […] (E) BrPPI, 10 μM effect on [^125I ]IPPI binding. (F) MK-6240, 10μM effect on [^125I]IPPI binding. (G) Immunostaining of 11-38 with Dako A0024 for total Tau; (i) picture of entire slice and (ii) magnification (x10) of box in (i). (H) Plot comparing GM and WM in the two AD subjects with different drugs.

Tau protein [4] = target: Tau protein (Homo sapiens, UniProt P10636); experiment: In vitro binding in human AD brain slices using [^125I]IPPI; conditions: [^125I]IPPI labeled human AD brain slices
Sequence of Tau protein (Homo sapiens, UniProt P10636) (P10636 with tags, fused parts or gaps): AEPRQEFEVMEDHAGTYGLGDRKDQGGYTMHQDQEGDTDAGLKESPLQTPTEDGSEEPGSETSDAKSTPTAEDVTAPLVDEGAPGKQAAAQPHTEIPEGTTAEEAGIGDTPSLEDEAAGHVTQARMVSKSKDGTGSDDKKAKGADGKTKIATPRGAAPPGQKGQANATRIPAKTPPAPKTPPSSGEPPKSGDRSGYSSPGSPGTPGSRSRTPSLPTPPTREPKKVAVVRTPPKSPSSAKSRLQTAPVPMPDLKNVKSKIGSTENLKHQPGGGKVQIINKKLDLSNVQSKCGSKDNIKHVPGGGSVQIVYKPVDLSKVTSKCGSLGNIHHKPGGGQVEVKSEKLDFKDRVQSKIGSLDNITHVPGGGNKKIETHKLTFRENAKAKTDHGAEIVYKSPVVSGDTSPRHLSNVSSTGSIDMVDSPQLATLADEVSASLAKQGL
Protocol: Assessing the binding specificity of Flotaza. In vitro binding affinity of Flotaza in human AD brain slices using [^3H]PIB for Aβ plaques and [^125I]IPPI for Tau were carried out. […] Thus, Flotaza is a selective Aβ plaque agent.

human Aβ plaques = human Aβ plaques (Homo sapiens, UniProt P05067); experiment: In vitro binding affinity in human AD brain slices using [^3H]PIB; conditions: human AD brain slices (anterior cingulate, corpus callosum)
Sequence of human Aβ plaques (P05067 672-713): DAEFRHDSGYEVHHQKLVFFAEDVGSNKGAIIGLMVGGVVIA
Protocol: Analytical thin-layer chromatography (TLC) was used to monitor reactions (Baker-flex, Phillipsburg, N.J., USA). RadioTLC were scanned on an AR-2000 imaging scanner (Eckart & Ziegler, Berlin, Germany). Electrospray mass spectra were obtained from a Model 7250 mass spectrometer (Micromass LCT). Proton NMR spectra were recorded on a Bruker OM EGA 500-MHz spectrometer. Tritium was assayed by using a Packard Tri-Carb Liquid scintillation counter with 65% efficiency. Human postmortem brain tissue samples were obtained from Banner Sun Health Research Institute, Sun City, Ariz. brain tissue repository for in vitro experiments. Age and gender matched AD brain and cognitively normal (CN) brain tissue samples selected for end-stage pathology (Braak & Braak stage of VI; Braak and Braak 1991). Human postmortem brain slices were obtained from chunks of frozen tissue on a Leica 1850 cryotome cooled to −20° C. Tritium and iodine-125, and fluorine-18 autoradiographic studies were carried out by exposing tissue samples on storage phosphor screens (Perkin Elmer Multisensitive, Medium MS and tritium sensitive phosphor screens). The apposed phosphor screens were read and analyzed by OptiQuant acquisition and analysis program of the Cyclone Storage Phosphor System (Packard Instruments Co., Boston, Mass.). […]

Aβ plaques [5] = conditions: hippocampal AD brain sections; cited from earlier work

For “4-O-[^18F]FluoroPEG3-2-(1H-pyrrolo[2,3-c]pyridine-1-yl)pyridine [[^18F]FAZIN3]”, the “selectivity of binding for MAO-A versus MAO-B” value (MAO-A) was “selective MAO-A binding”.
For `CN(C)c1ccc(N=Nc2ccc(OCCOCCOCC[18F])cc2)cc1` [[^18F]Flotaza], the “binding in the grey matter regions of AD subjects” value (Aβ plaques [1]; anterior cingulate, AD subjects) was “Extensive binding” and the “ratio between gray matter and white matter binding” value (Aβ plaques [1]; six AD subjects, slices washed with 50% alcohol in PBS buffer) was > 100.
With `CNc1ccc(-c2nc3ccc(O)cc3s2)cc1` [PIB, reference compound] the “effect on grey matter binding of [^18F]Flotaza” value (Aβ plaques [1]; AD brain sections treated with the drug) was “significantly reduced”.
For `CN(C)c1ccc(N=Nc2ccc([125I])cc2)cc1` [^125I-IAZA], the “binding in gray matter of AD brain slices” value (Aβ plaques [2]) was “binding in the gray matter regions”.
For `[125I]c1ccc2cnc(-n3ccc4ccncc43)cc2c1` [[^125I]IPPI, 6-[^125I]iodo-3-(1H-pyrrolo[2,3-c]pyridine-1-yl)isoquinoline], the “sensitivity of binding to MAO inhibitors” value (Tau protein [3]; MAO inhibitors at <1 μM concentrations) was “resistance to MAO inhibitors” and the “binding to Tau protein / neurofibrillary tangles in Alzheimer's disease brain grey matter” value (Tau protein [3]; postmortem AD brain slices) was “Excellent binding”.
With `FCCOCCOCCOc1ccnc(-n2ccc3ccncc32)c1` [FAZIN3, 4-O-FluoroPEG3-2-(1H-pyrrolo[2,3-c]pyridine-1-yl)pyridine] the “selectivity of binding for MAO-A versus MAO-B” value (MAO-A) was “selectively bound to MAO-A”.
In the case of `CN(C)c1ccc(N=Nc2ccc(OCCOCCOCCF)cc2)cc1` [Flotaza], the “effect on the binding of [^125I]IPPI” value (Tau protein [4]) is reported as “did not have any significant effect”.
With `Nc1c(F)ccc2cnc(-n3ccc4ccncc43)cc12` [MK-6240, reference compound] the “displacement (inhibition) of [^18F]FAZIN3 binding” value (MAO-A; drug 10 μM, human brain sections) was “did not have much effect”.
`CNc1ccc(N=Nc2ccc(N(C)C)cc2)cc1` [TAZA] gave a Ki (human Aβ plaques) of 0.54 nM.
In the case of `[11CH3]Nc1ccc(-c2nc3ccc(O)cc3s2)cc1` [[^11C]PIB], the GM/WM ratios (Aβ plaques [5]) is given as “lower GM/WM ratios”.
